PubChem BioAssay (NCI)
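All cell lines were grown in 96-well plates and treated with compound for 48 hours. The concentration for 50% growth inhibition is given as GI50. TGI: total growth inhibition.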

How the values were obtained:
Test in all cases: DTP human tumour cell line panel, 48 h
[1] = system: SNB-19 CNS
[2] = system: 786-0 renal
[3] = system: HCT-15 colon
[4] = system: RXF 393 renal
[5] = system: RPMI-8226 leukemia
[6] = system: U251 CNS
[7] = system: SNB-75 CNS
[8] = system: OVCAR-8 ovarian
[9] = system: HCC-2998 colon
[10] = system: NCI/ADR-RES ovarian
[11] = system: SR leukemia
[12] = system: HOP-92 NSCLC
[13] = system: HL-60(TB) leukemia
[14] = system: SK-MEL-28 melanoma
[15] = system: SK-MEL-2 melanoma
[16] = system: ACHN renal
[17] = system: TK-10 renal
[18] = system: MOLT-4 leukemia
[19] = system: DU-145 prostate
[20] = system: UACC-257 melanoma
[21] = system: NCI-H23 lung
[22] = system: SN12C renal
[23] = system: SF-539 CNS
[24] = system: M14 melanoma
[25] = system: BT-549 breast
[26] = system: T-47D breast
[27] = system: HOP-62 NSCLC
[28] = system: MDA-MB-231 breast
[29] = system: HCT-116 colon
[30] = system: UO-31 renal
[31] = system: OVCAR-4 ovarian
[32] = system: SW-620 colon
[33] = system: PC-3 prostate
[34] = system: SK-OV-3 ovarian
[35] = system: UACC-62 melanoma
[36] = system: CCRF-CEM leukemia
[37] = system: HT29 colon
[38] = system: SF-268 CNS
[39] = system: A549 NSCLC
[40] = system: IGROV1 ovarian
[41] = system: COLO 205 colon
[42] = system: HS 578T breast
[43] = system: MALME-3M melanoma
[44] = system: MCF7 breast
[45] = system: K-562 leukemia
[46] = system: OVCAR-5 ovarian
[47] = system: EKVX NSCLC
[48] = system: CAKI-1 renal
[49] = system: A498 renal
[50] = system: NCI-H226 lung
[51] = system: SF-295 CNS
[52] = system: NCI-H522 lung
[53] = system: KM12 colon
[54] = system: MDA-MB-435
[55] = system: NCI-H460 lung

In the case of `O=c1oc2ccc(-c3ccc(F)cc3F)cc2c(=O)n1-c1cccc(C(F)(F)F)c1`, the GI50 [1] is reported as 1.79 µM, the TGI [1] is reported as > 50 µM and the GI50 [2] is reported as 1.77 µM. It also gave a TGI [2] of 9.55 µM, a GI50 [3] of 1.53 µM and a TGI [3] of 5.6 µM. It also gave a GI50 [4] of 1.28 µM, a TGI [4] of 3.93 µM and a GI50 [5] of 1.03 µM. For the same molecule, the TGI [5] was 3.13 µM, the GI50 [6] was 1.7 µM and the TGI [6] was > 50 µM. For the same molecule, the GI50 [7] was 0.906 µM, the TGI [7] was 2.59 µM and the GI50 [8] was 1.72 µM. The TGI [8] was > 50 µM, the GI50 [9] was 1.6 µM and the TGI [9] was 6.24 µM. The GI50 [10] was 1.27 µM, the TGI [10] was 3.96 µM and the GI50 [11] was 1.64 µM. The TGI [11] was > 50 µM, the GI50 [12] was 0.952 µM and the TGI [12] was 2.78 µM. For the same molecule, the GI50 [13] was 1.1 µM, the TGI [13] was 2.89 µM and the GI50 [14] was 1.73 µM. It also gave a TGI [14] of 7.48 µM, a GI50 [15] of 1.21 µM and a TGI [15] of 3.37 µM. It also gave a GI50 [16] of 1.39 µM, a TGI [16] of 4.26 µM and a GI50 [17] of 2.25 µM. It also gave a TGI [17] of 12 µM, a GI50 [18] of 1.55 µM and a TGI [18] of 6.89 µM. The GI50 [19] was 2 µM, the TGI [19] was > 50 µM and the GI50 [20] was 1.21 µM. It also gave a TGI [20] of 3.87 µM, a GI50 [21] of 1.13 µM and a TGI [21] of 3.73 µM. It also gave a GI50 [22] of 1.35 µM, a TGI [22] of 4.15 µM and a GI50 [23] of 1.59 µM. It also gave a TGI [23] of 6.45 µM, a GI50 [24] of 1.71 µM and a TGI [24] of 8.41 µM. The GI50 [25] was 1.66 µM, the TGI [25] was 6.77 µM and the GI50 [26] was 1.3 µM. The TGI [26] was 4.13 µM, the GI50 [27] was 1.48 µM and the TGI [27] was 6.33 µM. For the same molecule, the GI50 [28] was 1.21 µM, the TGI [28] was 2.97 µM and the GI50 [29] was 1.55 µM. It also gave a TGI [29] of 5.85 µM, a GI50 [30] of 1.13 µM and a TGI [30] of 4.92 µM. For the same molecule, the GI50 [31] was 1.61 µM, the TGI [31] was 40.1 µM and the GI50 [32] was 1.61 µM. The TGI [32] was 6.47 µM, the GI50 [33] was 1.64 µM and the TGI [33] was 7.54 µM. The GI50 [34] was 1.31 µM, the TGI [34] was 3.97 µM and the GI50 [35] was 1.2 µM. For the same molecule, the TGI [35] was 3.65 µM, the GI50 [36] was 1.71 µM and the TGI [36] was 24.5 µM. For the same molecule, the GI50 [37] was 6.24 µM, the TGI [37] was > 50 µM and the GI50 [38] was 1.55 µM. For the same molecule, the TGI [38] was 12 µM, the GI50 [39] was 1.68 µM and the TGI [39] was > 50 µM. For the same molecule, the GI50 [40] was 1.49 µM, the TGI [40] was 8.81 µM and the GI50 [41] was 5.91 µM. It also gave a TGI [41] of 14.4 µM, a GI50 [42] of 1.31 µM and a TGI [42] of 4.64 µM. It also gave a GI50 [43] of 1.16 µM, a TGI [43] of 3.26 µM and a GI50 [44] of 1.29 µM. The TGI [44] was 4.79 µM, the GI50 [45] was 1.63 µM and the TGI [45] was > 50 µM. The GI50 [46] was 1.55 µM, the TGI [46] was > 50 µM and the GI50 [47] was 1.18 µM. It also gave a TGI [47] of 4.64 µM, a GI50 [48] of 1.02 µM and a TGI [48] of 2.99 µM. The GI50 [49] was 0.902 µM, the TGI [49] was 2.38 µM and the GI50 [50] was 1.51 µM. For the same molecule, the TGI [50] was 5.58 µM, the GI50 [51] was 1.23 µM and the TGI [51] was 3.34 µM. For the same molecule, the GI50 [52] was 1.42 µM, the TGI [52] was 6.02 µM and the GI50 [53] was 1.61 µM. The TGI [53] was 5.46 µM, the GI50 [54] was 1.58 µM and the TGI [54] was 5.34 µM. For the same molecule, the GI50 [55] was 1.53 µM and the TGI [55] was 5.77 µM.
